Laboratory results from US9387197B2, “Methods for treating conditions such as dystonia and post-stroke spasticity with clonidine” (Warsaw Orthopedic, Inc., priority 2008, dated 2016).

System: Rat Chronic Constriction Injury Model
Conditions: FIG. 4; days 8-64
Protocol: A 2-month chronic constriction injury (CCI) model of neuropathic pain was used to evaluate different formulations of clonidine encapsulated in bioerodible polymers compared to clonidine given subcutaneously (SC). Different formulations as provided in Table 5 below were evaluated for reducing pain-associated behaviors: Thermal paw withdrawal latency was evaluated at baseline, 7, 14, 21, 28, 35, 42, 49, 56 and 64 days post-operatively, while mechanical threshold was evaluated at 8, 15, 22, 29, 36, 43, 50, 57 and 64 days post-operatively.
The inventors evaluated the efficacy of a five month Clonidine/Polymer Drug Depot in the Rat Chronic Constriction Injury Model. The animal model was the Bennett Model (Wistar rat). The purpose: To determine whether a five month polymer clonidine-eluting depot can improve pain associated behavioral responses in a rat model of neuropathic pain.
Experimental Design: Four loose chromic gut ligatures, 1 mm apart, were tied around the common sciatic nerve at mid-thigh. Each animal received treatment of a test or control article according to the dosing described in Table 5.
The inventors have conducted the present study for a period of 64 days and have employed the following two tests: (1) the Hargreaves test; and (2) the von Frey test. […]

Clc1cccc(Cl)c1N=C1NCCN1 [clonidine, 2,6-dichloro-N-2-imidazolidinyldenebenzenamine]
pain behavioral response, mechanical threshold (mechanical allodynia), compared to unloaded polymer depots: reduced the behavioral response
